In patent US11920185B2, “Method of inactivating microbes by citraconic anhydride” (Roche Molecular Systems, Inc., priority 2015, dated 2024):
Read-outs that look alike come from different tables or passages of the source.

Tested on: lambda bacteriophage GT11
Assay: Titering (plaque assay) of citraconic anhydride-treated lambda bacteriophage on E. coli Y1088
Assay type: cell-based
Conditions: for Titer, Tricine, After 1 month / Titer, Tricine, Day 1: stored in 10 mM Tricine pH 8.3; for Titer, Tris, After 1 month / Titer, Tris, Day 1: stored in 10 mM Tris pH8.3; for Titer pfu/ml (at 1 month): stored one month at 4° C.
Description: In order to analyze lambda bacteriophage GT11 inactivation using citraconic anhydride (also referred to as “Cit” or “cit”), a titration was performed.
10 μl of working solution of citraconic anhydride in DMF was added to 1 ml lambda bacteriophage in SM buffer, which is 0.1 M NaCl, 10 mM MgSO^4, 50 mM Tris pH 7.5, 0.01% gelatin (Sambrook and Russell, supra, page A2.8) where the phage was provided at 1×10^7 pfu/ml). The reaction was performed at room temperature for 1 hour and then stored at 4° C. for 7 days to one month. The phage solutions were titered to determine the effect of the citraconic anhydride modification on the phage.
Titering of bacteriophage was performed as follows: The host bacterium, E. coli Y1088, was inoculated into 15 mls luria broth supplemented with 10 mM MgSO4 and 0.2% Maltose (w/v) using a 0.1% inoculum and incubated at 37° C. to an OD<=1. The cells were concentrated by centrifugation (10 minutes at 500×g) and the cell pellet resuspended in ½ volume of sterile 10 mM MgSO4. The E. coli cells were diluted to 0.5 OD600 with 10 mM MgSO4. The bacteriophage was serially diluted in SM Buffer as follows. Pipet 10 μL phage into the tube labeled 10^−2. Resuspend by vortexing. Using a new tip, pipet 10 μL of the 10^−2 dilution into the tube labeled 10^−4. Resuspend by vortexing. Repeat the 100-fold serial dilutions to the 10^−8 tube. From the 10^−8 tube, perform 10-fold dilutions to the 10^−9 and 10^−10 tubes. Add 100 μL of phage from the 10^−8 s to the 10^−9 tube, vortex, and add 100 μL from the 10^−9 tube to the 10^−10 tube. Vortex the 10^−10 tube. Add 300 μL E. coli to each of 5 sterile 17×100 mm Falcon polypropylene round bottom tubes (#352057) for each sample being titered. Add 100 μL of the diluted […] to the tube (dilutions 10^−4, 10^−6, 10^−8, 10^−9 and 10^−10). Let sit 10 minutes at room temperature. Incubate 10 minutes at 37° C. Meanwhile, label the NZCYM plates with the phage sample and the dilution. To the first tube still in the 37° C. heat block, add 3 mL top agar (from the bottle of top agar in the 50° C. bath), vortex the tube, and quickly pour onto the NZCYM plate. Swirl the plate quickly so the top agar covers the entire plate. Allow the top agar to solidify on the bench. Repeat with each tube. Incubate the plates at 37° C. overnight in an inverted position. The next day, count the plaques and calculate the titer by using the dilution which provides the most countable number of plaques.
This experiment tested the stability of citraconic anhydride (Cit)-treated lambda bacteriophage. Phage was inactivated using different Cit concentrations and stored for one month at 4° C.
Bacteriophage targets treated with different concentrations of Cit were stored in different buffers and then evaluated for their inactivation status. Targets were stored in either 10 mM Tris pH8.3 or 10 mM Tricine pH 8.3.

Structure (SMILES): CC1=CC(=O)OC1=O [citraconic anhydride]
- Day 1 - Titer: 6.7 × 10^6 pfu/ml
- Day 8 - Titer (1.1 μM final concentration, stored at 4° C.): 3.9 × 10^7 pfu/ml
- Day 1 - Titer (11 μM final concentration): 9.0 × 10^6 pfu/ml
- Day 8 - Titer (11 μM final concentration, stored at 4° C.): 2.9 × 10^7 pfu/ml
- Day 1 - Titer (0.11 mM final concentration): 5.5 × 10^6 pfu/ml
- Day 8 - Titer (0.11 mM final concentration, stored at 4° C.): 3.6 × 10^7 pfu/ml
- Day 1 - Titer (1.1 mM final concentration): 1.8 × 10^6 pfu/ml
- Day 8 - Titer (1.1 mM final concentration, stored at 4° C.): 2.0 × 10^7 pfu/ml
- Titer, Tricine, After 1 month (5.5 mM Cit): 3 × 10^3 pfu/ml
- Titer, Tricine, Day 1 (5.5 mM Cit): 1 × 10^3 pfu/ml
- Titer, Tris, After 1 month (5.5 mM Cit): 0 pfu/ml
- Titer, Tris, Day 1 (5.5 mM Cit): 1.5 × 10^3 pfu/ml
- Titer pfu/ml (Day 1) (5.5 mM final Cit concentration): 1.5 × 10^6 pfu/ml
- Titer pfu/ml (at 1 month) (5.5 mM final Cit concentration): 1.5 × 10^6 pfu/ml
- Titer, Tricine, After 1 month (11 mM Cit): 0 pfu/ml
- Titer, Tricine, Day 1 (11 mM Cit): 0 pfu/ml
- Titer, Tris, After 1 month (11 mM Cit): 0 pfu/ml
- Titer, Tris, Day 1 (11 mM Cit): 0 pfu/ml
- Titer pfu/ml (Day 1) (11 mM final Cit concentration): 0 pfu/ml
- Titer pfu/ml (at 1 month) (11 mM final Cit concentration): 0 pfu/ml
- Day 1 - Titer (11 mM final concentration in reaction with phage, 1 h room temperature, phage 1×10^7 pfu/ml in SM buffer): 0 pfu/ml
- Day 8 - Titer (11 mM final concentration, stored at 4° C.): 0 pfu/ml
- Phage inactivation (11 mM, persisted after 7 days): complete inactivation
- Titer, Tricine, After 1 month (22 mM Cit): 0 pfu/ml
- Titer, Tricine, Day 1 (22 mM Cit): 0 pfu/ml
- Titer, Tris, After 1 month (22 mM Cit): 0 pfu/ml
- Titer, Tris, Day 1 (22 mM Cit): 0 pfu/ml
- Titer pfu/ml (Day 1) (22 mM final Cit concentration): 0 pfu/ml
- Titer pfu/ml (at 1 month) (22 mM final Cit concentration): 0 pfu/ml
- Persistence of phage inactivation after storage (Cit-treatment at >=11 mM, storage in 10 mM Tris pH8.3 or 10 mM Tricine pH 8.3): provides inactivation for 1 month
- Persistence of phage inactivation (greater than or equal to 11 mM, stored at 4° C.): remain inactivated for 1 month
